This note sets out measurements from patent US6967200B2, “Remedies for cirrhosis” (Shionogi & Co., Ltd., priority 2000, dated 2005).

Usually IC50 stands for the concentration that inhibits the measured activity by half.

For the assay, the target named is T1, Human type-X sPLA2 (Homo sapiens, UniProt O15496).
T1 construct: made in house; host or cells: CHO cells stably transfected with a pSVL SV40 late promoter expression vector; unpurified culture supernatant used as the enzyme source
T1 sequence (O15496 43-165): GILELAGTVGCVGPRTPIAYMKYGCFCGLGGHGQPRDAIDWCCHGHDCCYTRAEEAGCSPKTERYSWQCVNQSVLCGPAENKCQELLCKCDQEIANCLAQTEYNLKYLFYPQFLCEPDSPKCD
Description: type-X sPLA2 inhibition test (chromogenic assay, diheptanoylthio PC substrate). The class given is biochemical. The settings on record: diheptanoylthio PC 1 mM, 30 min at 40° C., pH 7.5, absorbance at 405 nm. An excerpt: cDNA sequence encoding human type-X sPLA2 (Cupillard et al., J. Biol. Chem, 1997, 272, 15745-15752) was inserted into the downstream region of the promoter of pSVL SV40 Late Promoter Expression Vector (Amersham Pharmacia Biotech Inc.) that is an expression vector for mammalian cells. The obtained expression vector was transfected into the host CHO cells with a LipofectAMINE reagent (Gibco BRL Inc.) according to the manufacture's instruction to obtain the CHO cells stably expressing human type-X sPLA2.
In order to identify and evaluate an inhibitor of type-X sPLA2, the following chromogenic assay is utilized. This assay has been applied for high volume screening using a 96-well microtiterplate. A general explanation for this assay is described in “Analysis of Human Synovial Fluid Phospholipase A2 on Short Chain Phosphatidylcholine-Mixed Micelles: Development of a Spectrophotometric Assay Suitable for a Micortiterplate Reader” (Analytical Biochemistry, 204, pp 190-197, 1992 by Laure. J. Reynolds. Lori L. Hughes and Edward A. Dennis.
Human type-X sPLA2 was incubated (30 min at 40° C. (15 μl/well)) with diheptanoylthio PC (1 mM) in the presence of Triton X-100 (0.3 mM) and 5,5′-dithiobis(2-nitrobenzoic acid) (125 μM) in Tris-HCl buffer (25 mM, pH 7.5) containing CaCl2 (10 mM), KCl (100 mM), and bovine serum albumin (1.0 mg/mL). […]

The structures appear in SMILES notation.

In turn, `NC(=O)C1=CCCc2c1c1c(OCC(=O)O)nccn1c2Cc1ccccc1` [Compound 7] came in with an IC50 of 5 nM.
